We go through three compounds from patent US7026355B2, “Use of rhein or diacerhein compounds for the treatment or prevention of vascular diseases” (Transition Therapeutics Inc., priority 2001, dated 2006).

Numbered stars: 1 amine (or outer) side, 2 acyl side, 3 side chain; on linkers, the order of the positions; unused ones are H or OH. Bridge positions count the residues as written; N and C are the ends. Square brackets hold non-standard residues; d marks the D form. Peptide text beside a SMILES is read from it. I, II: the chains in the order shown. Actinocin(9to1) = Cc1c2oc3c(C)ccc(C(=O)[*:1])c3nc-2c(C(=O)[*:2])c(N)c1=O; NMeV = CN[C@H](C(=O)O)C(C)C; Sar = CNCC(=O)O

Series [1] concerns A-10 cells. The experiment in a line: CellTiter 96 AQueous One Solution Cell Proliferation Assay. In kind it is cell-based, Rat. The conditions noted are these: for Measure of Proliferative Activity (Absorbance at 490 nm): 24 h, no treatment 0.775; for proliferative activity as compared to untreated cells: concentration higher than 10^−7 M. On the procedure:
A-10 cells were seeded at 1.0×10^3 cells/well in 96 well plates using Dulbecco's Modified Eagle Medium™ (Gibco BRL Cat. # 11885-084), 10% FBS and 1% Antibiotic Antimycotic (Gibco BRL Cat. # 15240) and allowed to grow overnight. Prior to treatment, cells were washed and the culture medium was replaced with culture medium containing either rhein or diacerhein at varying concentrations ranging from 10^−4 to 10^−8M.
(§1) The CellTiter 96® AQueous One Solution Cell Proliferation Assay (Promega) was used as a colorimetric method for determining the number of viable cells in proliferation. Cell proliferation assays were performed by adding a small amount of the CellTiter 96® AQueous One Solution Reagent directly to culture wells, incubating for 1–4 hours and then recording absorbance at 490 nm with a 96 well plate reader. The quantity of formazan product as measured by the amount of 490 nm absorbance is known in the art to be directly proportional to the number of living cells in the culture. For the assay, cells were incubated with rhein or diacerhein for 24 h. In addition, cells from selected concentrations are also treated with rhein or diacerhein and are incubated for 1–3 days. The cells are harvested and counted using a hemocytometer. Trypan blue staining was carried out to determine % of viable cells vs dead cells.

Series [2] concerns prostaglandin E2 synthesis. The settings on record: cited from earlier work.
A further series concerns iron regulatory protein. The settings on record: inflamed human monocytes; cited from earlier work.
Series [3] has as its system aortic smooth muscle cells. The experiment in a line: prolonged incubation (1-3 days), cells counted with a hemocytometer. Format: cell-based, Rat. How it is done:
as §1
Intimal smooth muscle cell (SMC) proliferation plays a key role in atherosclerosis and restenosis following vascular injury. Therefore, rhein or diacerhein is predicted to effectively treat these disease states.

For series [4], the system named is Rat aortic smooth muscle cells (A-10 cells). The experiment in a line: in vitro assay of smooth muscle cell migration after scrape injury. In kind it is cell-based. The conditions noted are these: incubation 20 h. On the procedure: The following in vitro assay was conducted to illustrate the effect of diacerhein on smooth muscle cell migration. Increased smooth muscle cell migration following injury is one of the predominant causes of obstruction of the vascular system following stenting and other vascular procedures.
Rat aortic smooth muscle cells (A-10 cells) were seeded at 2.5×10^5 cells/well in 6 well plates using Dulbecco's Modified Eagle Medium™ (Gibco BRL Cat. # 11885-084), 10% FBS and 1% Antibiotic Antimycotic (Gibco BRL Cat. # 15240). Confluency of cells after about 8 h was between 80˜90%. Cells were injured with the single edge cell scraper (one injury/well) then washed twice with PBS and treated with diacerhein at concentrations ranging from 50 μM to 100 μM. Images were taken using a X5 modulation objective (Zeiss, Germany) attached to a Zeiss Axiovert 100 inverted microscope equipped with Hoffman Modulation contrast optical filters (Greenvale, N.Y.).
The images were taken at zero time and following the incubation of smooth muscle cells with diacerhein for a period of 20 h.

Series [5] has as its system A-10 cells. The experiment in a line: Trypan blue staining, % of viable cells vs dead cells. The settings on record: no treatment 96.2%. Format: cell-based. How it is done:
as §1

The conditions of series [6]: 5 to 50 mg/kg for periods as long as 50 weeks; cited from earlier work.
The conditions of series [7]: clinical trials of actinomycin-D eluting stents; cited from earlier work.

For `CC(=O)Oc1cccc2c1C(=O)c1c(OC(C)=O)cc(C(=O)O)cc1C2=O` [Diacerhein, 4,5-bis(acetyloxy)-9,10-dihydro-4,5dihydroxy-9,10-dioxo-2-anthracenecarboxylic acid], the “Measure of Proliferative Activity (Absorbance at 490 nm)” value (from here on “Measure of Proliferative Activity”) was 0.561 in the series with A-10 cells [1] (Treatment with 2.5 × 10^−5 M); 0.419 in the series on A-10 cells [1] (Treatment with 5.0 × 10^−5 M); 0.408 in the series on A-10 cells [1] (Treatment with 7.5 × 10^−5 M); 0.380 in the series on A-10 cells [1] (Treatment with 10^−4 M); 0.646 with A-10 cells [1] (Treatment with 10^−5 M); 0.710 with A-10 cells [1] (Treatment with 10^−6 M). In addition, the “Measure of Proliferative Activity” value with A-10 cells [1] (Treatment with 10^−7 M) was determined as 0.738. Further, the “proliferative activity as compared to untreated cells” value in the series on A-10 cells [1] was “decrease in proliferative activity”. Also, the “prostaglandin E2 synthesis” value in series [2] was “stimulates prostaglandin E2 synthesis”. Besides, the “iron regulatory protein activation” value with iron regulatory protein is “inhibits iron regulatory protein activation”. Also, the “anti-proliferative activity on prolonged incubation (FIG. 2)” value in series [3] is given as “anti-proliferative activity”. For the same compound, the “migration of smooth muscle cells” value in series [4] (50 μM) and in series [4] (100 μM) was “significantly inhibited” in each case. For the same compound, the “Percentage of viable cells” value in the series on A-10 cells [5] (Treatment with 10^−4 M) came to 97.0%; in the series on A-10 cells [5] (Treatment with 10^−5 M), 97.5%; in the series on A-10 cells [5] (Treatment with 10^−6 M), 96.2%. In addition, the severity of osteoarthritis entry in series [6] was “reduced the severity of osteoarthritis”.

For `O=C(O)c1cc(O)c2c(c1)C(=O)c1cccc(O)c1C2=O` [Rhein, 9,10-dihydro-4,5-dihydroxy-9,10-dioxo-2-anthracenecarboxylic acid], the “Measure of Proliferative Activity” value is 0.577 in the series with A-10 cells [1] (Treatment with 2.5 × 10^−5 M); 0.518 in the series on A-10 cells [1] (Treatment with 5.0 × 10^−5 M); 0.460 with A-10 cells [1] (Treatment with 7.5 × 10^−5 M); 0.430 in the series with A-10 cells [1] (Treatment with 10^−4 M); 0.675 with A-10 cells [1] (Treatment with 10^−5 M); 0.738 with A-10 cells [1] (Treatment with 10^−6 M). In addition, in the series on A-10 cells [1] (Treatment with 10^−7 M), the “Measure of Proliferative Activity” value is reported as 0.891. Moreover, in the series with A-10 cells [1], the “proliferative activity as compared to untreated cells” value was “decrease in proliferative activity”. Also, the “anti-proliferative activity on prolonged incubation (FIG. 2)” value in series [3] is given as “anti-proliferative activity”. The “Percentage of viable cells” value with A-10 cells [5] (Treatment with 10^−4 M) was found to be 97.1%; in the series on A-10 cells [5] (Treatment with 10^−5 M), 96.0%; in the series on A-10 cells [5] (Treatment with 10^−6 M), 97.5%.

Consider `Cc1c2oc3c(C)ccc(C(=O)N[C@@H]4C(=O)N[C@H](C(C)C)C(=O)N5CCC[C@H]5C(=O)N(C)CC(=O)N(C)[C@@H](C(C)C)C(=O)O[C@@H]4C)c3nc-2c(C(=O)N[C@@H]2C(=O)N[C@H](C(C)C)C(=O)N3CCC[C@H]3C(=O)N(C)CC(=O)N(C)[C@@H](C(C)C)C(=O)O[C@@H]2C)c(N)c1=O` [actinomycin D] (I: T[dV]P[Sar][NMeV] / II: T[dV]P[Sar][NMeV]; ester I:1-I:C, II:1-II:C; linker I:N-II:N via Actinocin(9to1)), for which the prevention of restenosis result in series [7] is on record as “ineffectiveness”.
